In US20260232572A1, “INJECTABLE COMPOSITION, PHARMACEUTICAL FORMULATION INCLUDING THE SAME, AND METHOD FOR PREPARING THE COMPOSITION” (ONCONIC THERAPEUTICS INC., priority 2023, published 2026):
Like-named read-outs stand apart in the source and are kept apart here.

Legend:
[1] = Solubility of citrate of Compound 1 depending on pH; format: physicochemical
[2] = Bioavailability on oral administration, citrate of Compound 1 compared to free base; format: in vivo; conditions: orally administered

solubility ([1]; aqueous buffer, pH 3 or higher, particularly pH 3.3 or higher, read-out: solubility): < 1500 µg/mL
solubility ([1]; below pH 3): very excellent solubility
solubility ([1]; pH 3 to 4.7, due to SBE-β-CD): excellent solubility
AUC compared to Compound 1 free base [2]: at least five
Cmax compared to Compound 1 free base [2]: ≥ 11 times
Compound: Cc1cccc(C)c1CNc1cc(C(=O)N2CCC2)cn2c(C)c(C)nc12.O=C(O)CC(O)(CC(=O)O)C(=O)O [citrate of Compound 1, azetidin-1-yl{8-[(2,6-dimethylbenzyl)amino]-2,3-dimethylimidazo[1,2-a]pyridin-6-yl}methanone citrate]
time to reach highest blood concentration ([2]; compared to Compound 1 free base): within a short time compared to Compound 1
